Structures can show the parent of a compound that is named as a salt.
Key:
Type in all cases: biochemical
[1] = molecular target: T1, recombinant human VAP-1 (Homo sapiens, UniProt Q16853); assay: Activity evaluation on recombinant human VAP-1 (Amplex Red/HRP-coupled hydrogen peroxide assay, benzylamine substrate); details: recombinant human VAP-1, benzylamine substrate; read-out: Inhibitory Activity (IC50, nM) human VAP-1
T1 construct: purchased R&D systems
T1 sequence (Q16853 1-763): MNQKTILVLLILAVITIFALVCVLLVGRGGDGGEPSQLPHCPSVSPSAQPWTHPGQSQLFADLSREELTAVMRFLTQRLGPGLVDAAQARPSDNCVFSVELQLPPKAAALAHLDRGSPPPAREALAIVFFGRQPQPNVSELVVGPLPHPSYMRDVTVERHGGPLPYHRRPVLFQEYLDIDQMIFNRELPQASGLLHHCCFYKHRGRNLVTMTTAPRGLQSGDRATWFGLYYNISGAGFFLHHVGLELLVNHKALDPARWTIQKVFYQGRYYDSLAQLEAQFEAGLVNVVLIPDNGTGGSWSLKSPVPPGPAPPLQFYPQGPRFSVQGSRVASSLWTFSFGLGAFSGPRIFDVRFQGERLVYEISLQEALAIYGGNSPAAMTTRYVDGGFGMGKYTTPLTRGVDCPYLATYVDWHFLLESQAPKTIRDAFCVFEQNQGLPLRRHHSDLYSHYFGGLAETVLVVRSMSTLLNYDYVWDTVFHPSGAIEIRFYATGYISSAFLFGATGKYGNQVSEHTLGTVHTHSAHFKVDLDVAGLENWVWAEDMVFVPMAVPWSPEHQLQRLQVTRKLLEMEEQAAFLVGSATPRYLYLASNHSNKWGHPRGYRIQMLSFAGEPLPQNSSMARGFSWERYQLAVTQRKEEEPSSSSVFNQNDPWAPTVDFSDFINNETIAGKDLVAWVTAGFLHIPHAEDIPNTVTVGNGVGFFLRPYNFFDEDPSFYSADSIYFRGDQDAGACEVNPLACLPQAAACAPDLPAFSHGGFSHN
In short: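 Recombinant human VAP-1 in 50 mM sodium phosphate pH 7.4 preincubated 30 min at 37 °C with compound (8-point 1:3 series, <1% DMSO), then 1 mM benzylamine, 200 uM Amplex Red, 1 U/mL HRP added. H2O2-derived resorufin fluorescence (ex 544/em 590) followed 1–2 h; IC50 from four-parameter fit of rate inhibition.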

[2] = molecular target: T2, recombinant human MAO-A (monoamine oxidase-A) (Homo sapiens, UniProt P21397); assay: Activity evaluation on recombinant human MAO-A (Amplex Red/HRP-coupled assay, 0.5 mM tyramine substrate); details: 0.5 mM tyramine substrate, read-out: Inhibitory Activity (IC50, nM) MAO-A
T2 construct: purchased Sigma-Aldrich
T2 sequence (P21397 1-527): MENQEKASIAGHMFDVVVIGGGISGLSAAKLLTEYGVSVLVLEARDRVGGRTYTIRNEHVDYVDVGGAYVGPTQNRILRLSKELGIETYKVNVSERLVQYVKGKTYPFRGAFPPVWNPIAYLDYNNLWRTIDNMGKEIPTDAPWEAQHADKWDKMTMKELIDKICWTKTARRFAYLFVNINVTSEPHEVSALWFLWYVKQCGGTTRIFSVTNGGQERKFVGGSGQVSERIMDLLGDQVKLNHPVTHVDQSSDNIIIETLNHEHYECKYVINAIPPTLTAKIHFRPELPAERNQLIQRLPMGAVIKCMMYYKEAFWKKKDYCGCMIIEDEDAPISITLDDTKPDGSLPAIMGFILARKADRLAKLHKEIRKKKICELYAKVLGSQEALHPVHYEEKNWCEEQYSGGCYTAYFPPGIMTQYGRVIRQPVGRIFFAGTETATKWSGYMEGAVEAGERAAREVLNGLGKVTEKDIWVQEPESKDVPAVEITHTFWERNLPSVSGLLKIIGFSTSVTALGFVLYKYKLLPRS
In short: (§1)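 Compounds preincubated 30 min at 37 °C with enzyme in 50 mM sodium phosphate pH 7.4 (final DMSO <1%, 8-point 1:3 dilutions); reaction started with 200 uM Amplex Red, 1 U/mL HRP and substrate (MAO-A 0.5 mM tyramine, MAO-B 1 mM benzylamine, DAO 1 mM putrescine). Resorufin fluorescence (ex 544/em 590 nm) followed over 1-2 h; IC50 from four-parameter logistic fit.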

[3] = molecular target: T3, recombinant human MAO-B (monoamine oxidase-B) (Homo sapiens, UniProt P27338); assay: Activity evaluation on recombinant human MAO-B (Amplex Red/HRP-coupled assay, 1 mM benzylamine substrate); details: 1 mM benzylamine substrate, read-out: Inhibitory Activity (IC50, nM) MAO-B
T3 construct: purchased Sigma-Aldrich
T3 sequence (P27338 1-520): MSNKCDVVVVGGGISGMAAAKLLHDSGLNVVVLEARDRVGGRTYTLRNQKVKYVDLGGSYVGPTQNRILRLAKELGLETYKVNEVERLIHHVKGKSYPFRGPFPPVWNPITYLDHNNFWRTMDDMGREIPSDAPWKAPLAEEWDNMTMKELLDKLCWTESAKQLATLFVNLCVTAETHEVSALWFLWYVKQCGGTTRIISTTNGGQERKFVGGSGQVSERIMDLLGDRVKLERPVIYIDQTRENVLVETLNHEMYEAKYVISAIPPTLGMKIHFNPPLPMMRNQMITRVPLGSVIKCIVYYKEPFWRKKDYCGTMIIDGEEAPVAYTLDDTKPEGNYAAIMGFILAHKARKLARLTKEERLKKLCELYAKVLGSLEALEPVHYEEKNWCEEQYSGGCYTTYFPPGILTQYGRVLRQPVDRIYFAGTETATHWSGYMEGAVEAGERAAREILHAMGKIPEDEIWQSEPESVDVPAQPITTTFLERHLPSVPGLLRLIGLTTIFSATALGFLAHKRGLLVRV
In short: as §1

[4] = molecular target: T4, recombinant human DAO (diamine oxidase) (Homo sapiens, UniProt P19801); assay: Activity evaluation on recombinant human DAO (Amplex Red/HRP-coupled assay, 1 mM putrescine substrate); details: 1 mM putrescine substrate, read-out: Inhibitory Activity (IC50, nM) DAO
T4 construct: purchased R&D systems
T4 sequence (P19801 20-751): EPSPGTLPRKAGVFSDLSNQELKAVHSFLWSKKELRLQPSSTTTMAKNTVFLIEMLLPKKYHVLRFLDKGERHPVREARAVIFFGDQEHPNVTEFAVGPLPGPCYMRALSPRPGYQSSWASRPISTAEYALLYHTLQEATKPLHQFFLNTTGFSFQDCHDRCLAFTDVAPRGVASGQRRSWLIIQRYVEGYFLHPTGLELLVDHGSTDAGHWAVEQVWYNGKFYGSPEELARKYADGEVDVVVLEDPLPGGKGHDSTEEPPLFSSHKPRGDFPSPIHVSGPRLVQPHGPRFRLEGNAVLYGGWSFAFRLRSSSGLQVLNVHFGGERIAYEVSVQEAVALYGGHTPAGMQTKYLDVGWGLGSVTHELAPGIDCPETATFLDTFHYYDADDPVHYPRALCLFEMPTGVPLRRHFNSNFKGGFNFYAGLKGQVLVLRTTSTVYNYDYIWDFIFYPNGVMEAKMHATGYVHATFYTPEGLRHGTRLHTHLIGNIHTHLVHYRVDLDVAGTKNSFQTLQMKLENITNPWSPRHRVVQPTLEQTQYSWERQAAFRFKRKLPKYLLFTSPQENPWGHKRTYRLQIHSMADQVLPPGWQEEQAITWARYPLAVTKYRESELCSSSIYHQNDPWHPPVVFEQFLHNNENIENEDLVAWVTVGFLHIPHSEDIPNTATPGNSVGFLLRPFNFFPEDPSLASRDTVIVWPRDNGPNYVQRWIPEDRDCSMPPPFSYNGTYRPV
In short: as §1

| Compound | IC50 [1] [nM] | IC50 [2] [nM] | IC50 [3] [nM] | IC50 [4] [nM] |
| --- | --- | --- | --- | --- |
| Cc1cc(-c2ccc3c(c2)OCCN3C)cnc1-n1cnn(CC(CN)=C(F)F)c1=O [Example 223, 2-[2-(aminomethyl)-3,3-difluoro-allyl]-4-[3-methyl-5-(4-methyl-2,3-dihydro-1,4-benzoxazin-7-yl)-2-pyridyl]-1,2,4-triazol-3-one Trifluoroacetate] | 1.5 | > 10000 | 38000 | 37000 |
| COc1cc(-c2cnc(-n3cnn(CC(CN)=C(F)F)c3=O)c(C)c2)cc(OC)c1OC [Example 224, 2-[2-(aminomethyl)-3,3-difluoro-allyl]-4-[3-methyl-5-(3,4,5-trimethoxyphenyl)-2-pyridyl]-1,2,4-triazol-3-one Trifluoroacetate] | 0.8 | > 100000 | 1900 | 5500 |
| COc1ccc(-c2cnc(-n3cnn(CC(CN)=C(F)F)c3=O)c(C)c2)cn1 [Example 225, 2-[2-(aminomethyl)-3,3-difluoro-allyl]-4-[5-(6-methoxy-3-pyridyl)-3-methyl-2-pyridyl]-1,2,4-triazol-3-one Trifluoroacetate] | 0.5 | > 100000 | 1600 | 14000 |
| Cc1cc(-c2ccc3sc(N)nc3c2)cnc1-n1cnn(CC(CN)=C(F)F)c1=O [Example 226, 4-[5-(2-amino-1,3-benzothiazol-5-yl)-3-methyl-2-pyridyl]-2-[2-(aminomethyl)-3,3-difluoro-allyl]-1,2,4-triazol-3-one Trifluoroacetate] | 0.5 | > 100000 | 11000 | > 100000 |
| Cc1cc(-c2ccc3nonc3c2)cnc1-n1cnn(CC(CN)=C(F)F)c1=O [Example 227, 2-[2-(aminomethyl)-3,3-difluoro-allyl]-4-[5-(2,1,3-benzoxadiazol-5-yl)-3-methyl-2-pyridyl]-1,2,4-triazol-3-one Trifluoroacetate] | 0.7 | > 100000 | 340 | 4800 |
| Cc1cc(-c2cnc3[nH]ccc3c2)cnc1-n1cnn(CC(CN)=C(F)F)c1=O [Example 228, 2-[2-(aminomethyl)-3,3-difluoro-allyl]-4-[3-methyl-5-(1H-pyrrolo[2,3-b]pyridin-5-yl)-2-pyridyl]-1,2,4-triazol-3-one Trifluoroacetate] | 0.6 | > 100000 | 3300 | 7700 |
| Cc1cc(-c2ccc3ocnc3c2)cnc1-n1cnn(CC(CN)=C(F)F)c1=O [Example 229, 2-[2-(aminomethyl)-3,3-difluoro-allyl]-4-[5-(1,3-benzoxazol-5-yl)-3-methyl-2-pyridyl]-1,2,4-triazol-3-one Trifluoroacetate] | 0.6 | > 10000 | 4100 | 97000 |
| Cc1cc(-c2ccc(N3CCCC3=O)cc2)cnc1-n1cnn(CC(CN)=C(F)F)c1=O [Example 230, 2-[2-(aminomethyl)-3,3-difluoro-allyl]-4-[3-methyl-5-[4-(2-oxopyrrolidin-1-yl)phenyl]-2-pyridyl]-1,2,4-triazol-3-one Trifluoroacetate] | 0.7 | > 100000 | 77000 | 24000 |
| CC(=O)c1ccc(-c2cnc(-n3cnn(CC(CN)=C(F)F)c3=O)c(C)c2)s1 [Example 231, 4-[5-(5-acetyl-2-thienyl)-3-methyl-2-pyridyl]-2-[2-(aminomethyl)-3,3-difluoro-allyl]-1,2,4-triazol-3-one Trifluoroacetate] | 0.2 | 40400 | 1950 | 3910 |

Second part, the compound after the results:

| IC50 [1] [nM] | IC50 [2] [nM] | IC50 [3] [nM] | IC50 [4] [nM] | Compound |
| --- | --- | --- | --- | --- |
| 0.5 | > 100000 | 1100 | 15000 | Cc1cc(-c2cccc(-c3cc[nH]n3)c2)cnc1-n1cnn(CC(CN)=C(F)F)c1=O [Example 232, 2-[2-(aminomethyl)-3,3-difluoro-allyl]-4-[3-methyl-5-[3-(1H-pyrazol-3-yl)phenyl]-2-pyridyl]-1,2,4-triazol-3-one Trifluoroacetate] |
| 0.2 | > 100000 | 200 | 36000 | Cc1cc(-c2ccc3cn[nH]c3c2)cnc1-n1cnn(CC(CN)=C(F)F)c1=O [Example 233, 2-[2-(aminomethyl)-3,3-difluoro-allyl]-4-[5-(1H-indazol-6-yl)-3-methyl-2-pyridyl]-1,2,4-triazol-3-one Trifluoroacetate] |
| 0.4 | > 100000 | 1800 | 7500 | Cc1cc(-c2cccc(S(C)(=O)=O)c2)cnc1-n1cnn(CC(CN)=C(F)F)c1=O [Example 234, 2-[2-(aminomethyl)-3,3-difluoro-allyl]-4-[3-methyl-5-(3-methylsulfonylphenyl)-2-pyridyl]-1,2,4-triazol-3-one Trifluoroacetate] |
| 1.4 | > 100000 | 840 | > 100000 | Cc1cc(-c2cccc(N3CCNCC3)c2)cnc1-n1cnn(CC(CN)=C(F)F)c1=O [Example 235, 2-[2-(aminomethyl)-3,3-difluoro-allyl]-4-[3-methyl-5-(3-piperazin-1-ylphenyl)-2-pyridyl]-1,2,4-triazol-3-one Ditrifluoroacetate] |

Reference: US11168073B2, “3,3-difluoroallylamines or salts thereof and pharmaceutical compositions comprising the same” (YUHAN CORPORATION, priority 2018, dated 2021)
